Source: US10556865B2, “Synergistic herbicidal composition containing certain pyridine or pyrimidine carboxylic acids and certain cereal and rice herbicides” (Dow AgroSciences, LLC, priority 2007, dated 2020)
Read-outs that look alike come from different tables or passages of the source.

Experiments:
[1] = test system: blackgrass (Alopecurus myosuroides L; ALOMY); assay: Postemergence herbicidal activity of mixtures in cereal crops (greenhouse, visual injury 0-100 percent after 20-22 days); assay type: in vivo
In short: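 Plants at second-third true leaf stage sprayed postemergence at 187 L/ha with compound and second cereal herbicide alone and combined; solvent blank controls. Visual injury scored 0-100% versus controls after 20-22 days; expected mixture effects by Colby's equation.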

[2] = test system: chickweed (Stellaria media L; STEME); assay: Postemergence herbicidal activity of mixtures in cereal crops (greenhouse, visual injury); assay type: in vivo; settings: for pest or weed control at 8.75 g/ha / pest or weed control at 17.5 g/ha / pest or weed control at 35 g/ha / pest or weed control at 70 g/ha / pest or weed control at 140 g/ha: Stellaria media, post-emergence, read-out: STEME Ob
In short: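 Injury ratings (0–100%) taken 20–22 days post-spray versus solvent-blank controls. Treatment: 187 L/ha track spray, 2nd–3rd leaf plants, Compound A/B with second cereal herbicide.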

SMILES: COc1c(Cl)ccc(-c2cc(N)c(Cl)c(C(=O)O)n2)c1F [Compound A TEA, 4-amino-3-chloro-6-(4-chloro-2-fluoro-3-methoxyphenyl)pyridine-2-carboxylic acid]
- ALOMY Ob ([1]; 35 g/ha, Table 14): 0%
- ALOMY Ob ([1]; 35 g/ha, Table 16): 0%
- ALOMY Ob ([1]; 35 g/ha, Table 18): 0%
- ALOMY Ob ([1]; 35 g/ha, Table 19): 0%
- ALOMY Ob ([1]; 70 g/ha, Table 14): 0%
- ALOMY Ob ([1]; 70 g/ha, Table 16): 0%
- ALOMY Ob ([1]; 70 g/ha, Table 18): 0%
- ALOMY Ob ([1]; 70 g/ha, Table 19): 0%
- ALOMY Ob ([1]; 140 g/ha, Table 14): 3%
- ALOMY Ob ([1]; 140 g/ha, Table 16): 0%
- ALOMY Ob ([1]; 140 g/ha, Table 18): 3%
- ALOMY Ob ([1]; 140 g/ha, Table 19): 0%
- STEME Ob ([2]; 70 g/ha alone): 93%
- pest or weed control at 8.75 g/ha ([2]; 8.75 g/ha alone): 80%
- pest or weed control at 8.75 g/ha ([2]; 8.75 g/ha): 80%
- pest or weed control at 17.5 g/ha ([2]; 17.5 g/ha alone): 85%
- pest or weed control at 17.5 g/ha ([2]; 17.5 g/ha): 85%
- pest or weed control at 35 g/ha ([2]; 35 g/ha alone): 88%
- pest or weed control at 70 g/ha ([2]; 70 g/ha alone): 93%
- pest or weed control at 140 g/ha ([2]; 140 g/ha): 65%

SMILES: O=C(O)c1c(Cl)ccc2cc(Cl)cnc12 [Quinclorac]
- pest or weed control at 140 g/ha ([2]; 140 g/ha alone): 0%

SMILES: COC(=O)c1nc(-c2ccc(Cl)c(OC)c2F)nc(N)c1Cl [Compound B Methyl, 6-amino-5-chloro-2-(4-chloro-2-fluoro-3-methoxyphenyl)pyrimidine-4-carboxylic acid methyl ester]
- ALOMY Ob ([1]; 8.75 g/ha): 0%
- ALOMY Ob ([1]; 8.75 g/ha, Table 20): 0%
- ALOMY Ob ([1]; 8.75 g/ha, Table 22): 0%
- ALOMY Ob ([1]; 17.5 g/ha): 10%
- ALOMY Ob ([1]; 17.5 g/ha, Table 20): 10%
- ALOMY Ob ([1]; 17.5 g/ha, Table 22): 10%
- ALOMY Ob ([1]; 35 g/ha): 20%
- ALOMY Ob ([1]; 35 g/ha, Table 20): 20%
- ALOMY Ob ([1]; 35 g/ha, Table 22): 20%
- ALOMY Ob ([1]; 70 g/ha): 40%
- ALOMY Ob ([1]; 70 g/ha, Table 20): 40%
- ALOMY Ob ([1]; 70 g/ha, Table 22): 40%

SMILES: COC(=O)c1nc(-c2ccc(Cl)c(OC)c2F)cc(N)c1Cl [Compound A Methyl, 4-amino-3-chloro-6-(4-chloro-2-fluoro-3-methoxyphenyl)pyridine-2-carboxylic acid methyl ester]
- ALOMY Ob ([1]; 17.5 g/ha, Table 1): 0%
- ALOMY Ob ([1]; 17.5 g/ha, Table 2): 0%
- ALOMY Ob ([1]; 17.5 g/ha, Table 4): 0%
- ALOMY Ob ([1]; 17.5 g/ha, Table 5): 0%
- ALOMY Ob ([1]; 17.5 g/ha, Table 6): 0%
- ALOMY Ob ([1]; 35 g/ha, Table 1): 20%
- ALOMY Ob ([1]; 35 g/ha, Table 2): 20%
- ALOMY Ob ([1]; 35 g/ha, Table 3): 30%
- ALOMY Ob ([1]; 35 g/ha, Table 4): 30%
- ALOMY Ob ([1]; 35 g/ha, Table 5): 30%
- ALOMY Ob ([1]; 35 g/ha, Table 6): 30%
- ALOMY Ob ([1]; 35 g/ha, Table 7): 3%
- ALOMY Ob ([1]; 70 g/ha, Table 1): 50%
- ALOMY Ob ([1]; 70 g/ha, Table 2): 50%
- ALOMY Ob ([1]; 70 g/ha, Table 3): 30%
- ALOMY Ob ([1]; 70 g/ha, Table 4): 30%
- ALOMY Ob ([1]; 70 g/ha, Table 5): 30%
- ALOMY Ob ([1]; 70 g/ha, Table 6): 30%
- ALOMY Ob ([1]; 70 g/ha, Table 7): 20%
- ALOMY Ob ([1]; 140 g/ha, Table 7): 47%
- pest or weed control at 17.5 g/ha ([2]; 17.5 g/ha): 78%
- pest or weed control at 35 g/ha ([2]; 35 g/ha): 90%
- pest or weed control at 70 g/ha ([2]; 70 g/ha): 100%
